The assay relates to P. yoelii liver stage in HepG2-A16-CD81EGFP, imaging. The experiment in a line: Plasmodium liver-stage growth inhibition, dose response, imaging, Malaria Box, P. yoelii, HepG2-A16-CD81EGFP (AID 602156).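 Note: infected cells exposed to compound for 48 hours before fixation.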

The source of these data is PubChem BioAssay AID602156 (GNF / Scripps Winzeler lab, 2011).

pIC50: −log10 of the molar value. Activity calls are given as the source filed them. The rule behind the calls is not given here. A value given as a limit tells only on which side of the number the result lay.

Regarding `O=C(Nc1ccc(-c2nc3ccc(NC(=O)c4ccc(Br)o4)cc3[nH]2)cc1)c1ccc(Br)o1`, the negative-log IC50 (pIC50) was 6.09.
For `c1ccc(CNc2nc(Nc3ccccc3)nc3ccccc23)cc1`, the pIC50 was 6.82.
With `CCc1ccccc1N=C1c2c(cccc2[N+](=O)[O-])C(=O)C1C(C)=O` (centres undefined), the negative-log IC50 (pIC50) is 5.69.
Still for that read-out and setting: in the case of `CC(=O)N1c2ccc(C)cc2C(C)(c2ccccc2)CC1(C)C` (centres undefined) it was 5.90; in that of `O=C(Nc1c2ccccc2nc2ccccc12)c1cc(Cl)ccc1O`, 6.74.
In the case of `Cc1[nH]c2c(C)cccc2c(=O)c1CC=C(Cl)Cl`, the negative logarithm of the IC50 (pIC50) was 6.77.
As for `COc1cccc(C(=O)NC(c2ccccc2OC)c2cc(Cl)c3cccnc3c2O)c1` (centres undefined), the negative logarithm of the IC50 (pIC50) was 6.26.
Consider `CCOC(=O)c1c[nH]c2ccc(C(C)C)cc2c1=O`, for which the negative logarithm of the IC50 (pIC50) was 6.45.
For the molecule `CCN(c1ccccc1)S(=O)(=O)c1ccc(F)c(C(=O)Nc2c(C)cccc2C)c1`, the IC50 is > 10000 nM (inactive).
As for `Cc1nc2ccc(NC(=O)C3CC3)cc2c(=O)n1Cc1ccc(Cl)cc1`, the IC50 was > 10000 nM (inactive).
As to `O=C(NC1CC1)C1CCN(c2cccc3c2C(=O)N(Cc2cccc(C(F)(F)F)c2)C3=O)CC1`, the negative logarithm of the IC50 (pIC50) is 7.53.
For the molecule `CCCc1nc2ccc(NC(=O)c3ccccc3F)cc2c(=O)n1Cc1ccc(-c2ccccc2)cc1`, the pIC50 was 5.76.
Same read-out and setting: in the case of `Cc1cc(N)c2ccccc2[n+]1CCCCCCCCCC[n+]1c(C)cc(N)c2ccccc21` it was 6.25.
In the case of `CCOC(=O)c1c(CNC)n(C)c2cc(Br)c(O)cc12`, the IC50 was > 10000 nM (inactive).
`C=CCc1c(C)[nH]c2ccc(Br)cc2c1=O`: the negative-log IC50 (pIC50) is 6.74.
In the case of `COC(=O)C1=C(C)NC2=C(C(=O)CC(c3ccccc3Cl)C2)C1c1ccc([N+](=O)[O-])cc1` (centres undefined), the pIC50 was 6.07.
Regarding `O=C(c1cnsn1)N1CCCC(COc2cccc(CN3CCC(Cc4ccccc4)CC3)c2)C1` (centres undefined), the pIC50 was 6.22.
As for `C[C@@H]1C[C@@H]([C@H](O)CC2CC(=O)NC(=O)C2)C(=O)[C@@H](C)C1`, the pIC50 was 7.11.
`CCCCCC[P+](N(CCC)CCC)(N(CCC)CCC)N(CCC)CCC`: the pIC50 is 7.31.
Turning to `CCCCSCC(O)CN1CCCCC1` (centres undefined), the IC50 was > 10000 nM (inactive).
Regarding `COc1ccc(Nc2cc(C)nc(NCc3ccccc3)n2)cc1`, the negative-log IC50 (pIC50) is 6.20.
Same read-out and setting: in the case of `CCCCCCCC[n+]1c(C)n(CC)c2cc(C(=O)OCC)ccc21` it was 6.00; in that of `Cc1ccccc1N=Nc1ccc(NC(=O)c2ccco2)c(C)c1`, 6.52; in that of `CCC(C)Nc1nc(NC(C)CC)nc(N2CCCCCC2)n1` (centres undefined), 6.52.
For the molecule `Oc1cccc(Nc2nc(NCC3CCCO3)c3ccccc3n2)c1` (centres undefined), the negative logarithm of the IC50 (pIC50) was 5.98.
Turning to `Fc1ccc(-c2c[n+]3c(n2-c2ccccc2)SCC3)cc1`, the IC50 was > 4300 nM (inactive).
For the molecule `CC1CC(N(C(=O)c2ccc(Cl)cc2Cl)c2ccccc2)c2ccccc2N1C(=O)c1ccc(Cl)cc1` (centres undefined), the pIC50 was 5.44.
With `CCN(CC)c1ccc(N=Cc2ccc(Sc3nc4ccccc4s3)o2)cc1`, the IC50 was > 10000 nM (inactive).
For the molecule `CC[n+]1c(/C=C/C=C2\N(C)c3ccccc3C2(C)C)n(-c2ccccc2)c2cc(Cl)ccc21`, the pIC50 was 7.87.
On to `CCCCOc1ccc(C2C3CCCC=C3C(C#N)=C(N)C2(C#N)C#N)cc1` (centres undefined), for which the IC50 was > 10000 nM (inactive).
In the case of `O=c1c2ccccc2[nH]c2ccc(I)cc12`, the negative-log IC50 (pIC50) was 6.98.
Take `CCOc1ccc(CN(C(=O)COc2ccc(Cl)cc2)C(C)CCCN(CC)CC)cc1` (centres undefined): the pIC50 was 7.69.
Still for that read-out and setting: in the case of `CC1(C)N=C(N)N=C(N)N1c1ccccc1` it was 7.00; in that of `c1ccc(OCCOc2ccc(Nc3c4ccccc4nc4ccccc34)cc2)cc1`, 6.25.
`COc1ccc(NC(=O)COc2ccccc2C(C)C)c(OC)c1`: the IC50 is > 10000 nM (inactive).
Regarding `O=c1c2c([nH]c3ccccc13)CCCC2`, the pIC50 is 6.30.
Still for that read-out and setting: in the case of `Cc1cccc2c1[nH]c1nc(SCC(C)C)nnc12` it was 6.82.
Regarding `COc1ccccc1CNC(=O)c1nn(-c2ccc(Cl)cc2)c(=O)c2ccccc12`, the IC50 is > 10000 nM (inactive).
Turning to `CCCCSc1oc(C)nc1[P+](c1ccccc1)(c1ccccc1)c1ccccc1`, the negative-log IC50 (pIC50) is 7.09.
Turning to `O=C(Nc1ccc(-c2nc3ccc(NC(=O)c4cccc([N+](=O)[O-])c4)cc3[nH]2)cc1)c1cccc([N+](=O)[O-])c1`, the IC50 was > 944 nM (inactive).
As to `Cc1ccc(NC(=O)C2C3C=CC4(O3)C2C(=O)N(CCCN2CCOCC2)C4C(=O)NC2CCCC(C)C2C)cc1Cl` (centres undefined), the IC50 was > 10000 nM (inactive).
`Cc1ccc(-c2cc(C(=O)OCC(=O)c3cccc([N+](=O)[O-])c3)c3cc(C)ccc3n2)cc1`: the IC50 is > 10000 nM (inactive).
Take `Clc1ncnc2ncn(Cc3ccccc3)c12`: the IC50 is > 10000 nM (inactive).
As for `Oc1c(CN2CCN(Cc3ccc4cccnc4c3O)CC2)ccc2cccnc12`, the pIC50 is 7.02.
Still for that read-out and setting: in the case of `Cc1ccc(CSCc2ccc(C(=O)NC3CC3)o2)cc1` it was 7.33.
Take `COc1cncc(-c2cncc(-c3ccc(C)cc3)n2)c1`: the IC50 is > 10000 nM (inactive).
In the case of `CN1CCN(c2ccc(Nc3c4ccccc4nc4ccccc34)cc2)CC1`, the negative logarithm of the IC50 (pIC50) is 6.26.
Take `O=C(Nc1ccc2oc(-c3cccc4ccccc34)nc2c1)c1ccc([N+](=O)[O-])o1`: the pIC50 was 7.14.
As for `COC(=O)c1ccc(C2C3=C(CC(c4ccco4)CC3=O)Nc3ccccc3N2C(=O)c2ccccc2)cc1` (centres undefined), the IC50 was > 4780 nM (inactive).
Turning to `CCOc1ccc(N(C(=O)C2COc3ccccc3O2)C(C(=O)NC2CCCCC2)c2cn(C)nc2C)cc1` (centres undefined), the IC50 is > 10000 nM (inactive).
Turning to `COC(=O)c1c(-c2c(Cl)cccc2Cl)noc1NC(=O)NN1CCCCC1`, the negative logarithm of the IC50 (pIC50) was 6.19.
Still for that read-out and setting: in the case of `COc1cccc(CNC(=O)C2CNCC2c2ccc(C(F)(F)F)cc2)c1` (centres undefined) it was 6.07; in that of `Cc1ncc(CCCCN(C)C)c2c1[nH]c1ccccc12`, 5.56; in that of `CC[n+]1cc(-c2ccc(C)cc2)sc1C=C1Sc2ccccc2N1C`, 8.35.

Usually pIC50 stands for the negative decadic logarithm of the IC50, by convention in mol/L. As a reminder, the IC50 is the concentration that gives 50% inhibition.
